Test results from patent publication US10202361B2, “Pyridazinones as herbicides” (E I DU PONT DE NEMOURS AND COMPANY, priority 2014, dated 2019).

Assays:
Assay type in all cases: in vivo
[1] = system: waterhemp_RES2 (ALS & HPPD resistant common waterhemp, Amaranthus rudis); test: Test E postemergence greenhouse herbicide test; conditions: scale 0 to 100
Protocol: At the same time, plants from these crop and weed species and also waterhemp_RES1, (ALS & Triazine resistant common waterhemp, Amaranthus rudis), and waterhemp_RES2, (ALS & HPPD resistant common waterhemp, Amaranthus rudis) were planted in pots containing Redi-Earth® planting medium (Scotts Company, 14111 Scottslawn Road, Marysville, Ohio 43041) comprising spaghnum peat moss, vermiculite, wetting agent and starter nutrients were treated with postemergence applications of test chemicals formulated in the same manner. Plants ranged in height from 2 to 18 cm for postemergence treatments (1- to 4-leaf stage). Treated plants and controls were maintained in a greenhouse for 14 to 21 d, after which time all species were compared to controls and visually evaluated. Plant response ratings, summarized in Table E, are based on a scale of 0 to 100 where 0 is no effect and 100 is complete control. A dash (-) response means no test result.

[2] = system: Russian thistle (Salsola kali); test: Test C pre-/postemergence greenhouse herbicide test; conditions: Preemergence
Outline: (§1)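 Plant response is scored on a 0–100 scale, where 100 means complete control, by visual comparison with controls 13 to 15 d after greenhouse treatment. Applications are made pre- and postemergence using a surfactant-containing, non-phytotoxic solvent formulation.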

[3] = system: bermudagrass (Cynodon dactylon); test: as above
Outline: as §1

[4] = system: bromegrass, downy (downy bromegrass, Bromus tectorum); test: as above
Outline: as §1

[5] = system: cupgrass, woolly (woolly cupgrass, Eriochloa villosa); test: as above
Outline: as §1

[6] = system: foxtail, green (green foxtail, Setaria viridis); test: as above
Outline: as §1

[7] = system: goosegrass (Eleusine indica); test: as above
Outline: as §1

[8] = system: nightshade (eastern black nightshade, Solanum ptycanthum); test: as above; conditions: Preemergence
Outline: as §1

[9] = system: surinam grass (Brachiaria decumbens); test: as above
Outline: as §1

[10] = system: barley (winter barley, Hordeum vulgare); test: Test C postemergence greenhouse herbicide test
[11] = system: canarygrass (Phalaris minor); test: Test C postemergence greenhouse herbicide test
[12] = system: deadnettle (henbit deadnettle, Lamium amplexicaule); test: Test C postemergence greenhouse herbicide test
[13] = system: windgrass (Apera spica-venti); test: Test C postemergence greenhouse herbicide test

COc1cc(=O)n(-c2ccc(C(F)(F)F)cc2)nc1Cc1ccnc(C(F)(F)F)c1 [Compound 16, 5-methoxy-2-[4-(trifluoromethyl)phenyl]-6-[[2-(trifluoromethyl)-4-pyridinyl]methyl]-3(2H)-pyridazinone]
Plant response rating: Waterhemp_RES2 ([1]; 62 g ai/ha): 90
Plant response rating: Waterhemp_RES2 ([1]; 125 g ai/ha): 95
Plant response rating: Waterhemp_RES2 ([1]; 250 g ai/ha): 100

Cc1cc(=O)n(-c2ccc(F)cc2)nc1Oc1ccnc(C(F)(F)F)c1 [Compound 14, 2-(4-fluorophenyl)-5-methyl-6-[[2-(trifluoromethyl)-4-pyridinyl]oxy]-3 (2H)-pyridazinone]
Plant response rating ([2]; 31 g ai/ha): 85
Plant response rating ([2]; 62 g ai/ha): 90
Plant response rating ([2]; 125 g ai/ha): 90
Plant response rating ([2]; 250 g ai/ha): 90
Plant response rating ([3]; Postemergence, 31 g ai/ha): 5
Plant response rating ([3]; Postemergence, 62 g ai/ha): 10
Plant response rating ([3]; Postemergence, 125 g ai/ha): 10
Plant response rating ([3]; Postemergence, 250 g ai/ha): 15
Plant response rating ([3]; Preemergence, 31 g ai/ha): 98
Plant response rating ([3]; Preemergence, 62 g ai/ha): 98
Plant response rating ([3]; Preemergence, 125 g ai/ha): 98
Plant response rating ([3]; Preemergence, 250 g ai/ha): 98
Plant response rating ([4]; Postemergence, 31 g ai/ha): 5
Plant response rating ([4]; Postemergence, 62 g ai/ha): 5
Plant response rating ([4]; Postemergence, 125 g ai/ha): 5
Plant response rating ([4]; Postemergence, 250 g ai/ha): 30
Plant response rating ([4]; Preemergence, 31 g ai/ha): 5
Plant response rating ([4]; Preemergence, 62 g ai/ha): 5
Plant response rating ([4]; Preemergence, 125 g ai/ha): 5
Plant response rating ([4]; Preemergence, 250 g ai/ha): 30
Plant response rating ([5]; Postemergence, 31 g ai/ha): 5
Plant response rating ([5]; Postemergence, 62 g ai/ha): 15
Plant response rating ([5]; Postemergence, 125 g ai/ha): 15
Plant response rating ([5]; Postemergence, 250 g ai/ha): 20
Plant response rating ([5]; Preemergence, 31 g ai/ha): 65
Plant response rating ([5]; Preemergence, 62 g ai/ha): 95
Plant response rating ([5]; Preemergence, 125 g ai/ha): 98
Plant response rating ([5]; Preemergence, 250 g ai/ha): 98
Plant response rating ([6]; Postemergence, 31 g ai/ha): 10
Plant response rating ([6]; Postemergence, 62 g ai/ha): 10
Plant response rating ([6]; Postemergence, 125 g ai/ha): 40
Plant response rating ([6]; Postemergence, 250 g ai/ha): 98
Plant response rating ([6]; Preemergence, 31 g ai/ha): 95
Plant response rating ([6]; Preemergence, 62 g ai/ha): 95
Plant response rating ([6]; Preemergence, 125 g ai/ha): 95
Plant response rating ([6]; Preemergence, 250 g ai/ha): 95
Plant response rating ([7]; Postemergence, 31 g ai/ha): 5
Plant response rating ([7]; Postemergence, 62 g ai/ha): 10
Plant response rating ([7]; Postemergence, 125 g ai/ha): 15
Plant response rating ([7]; Postemergence, 250 g ai/ha): 15
Plant response rating ([7]; Preemergence, 31 g ai/ha): 45
Plant response rating ([7]; Preemergence, 62 g ai/ha): 80
Plant response rating ([7]; Preemergence, 125 g ai/ha): 100
Plant response rating ([7]; Preemergence, 250 g ai/ha): 100
Plant response rating ([8]; 31 g ai/ha): 98
Plant response rating ([8]; 62 g ai/ha): 98
Plant response rating ([8]; 125 g ai/ha): 98
Plant response rating ([8]; 250 g ai/ha): 100
Plant response rating ([9]; Postemergence, 31 g ai/ha): 5
Plant response rating ([9]; Postemergence, 62 g ai/ha): 10
Plant response rating ([9]; Postemergence, 125 g ai/ha): 30
Plant response rating ([9]; Postemergence, 250 g ai/ha): 45
Plant response rating ([9]; Preemergence, 62 g ai/ha): 20
Plant response rating ([9]; Preemergence, 125 g ai/ha): 75
Plant response rating ([9]; Preemergence, 250 g ai/ha): 75
Plant response rating ([10]; 31 g ai/ha): 5
Plant response rating ([10]; 62 g ai/ha): 5
Plant response rating ([10]; 125 g ai/ha): 10
Plant response rating ([10]; 250 g ai/ha): 25
Plant response rating ([11]; 31 g ai/ha): 5
Plant response rating ([11]; 62 g ai/ha): 5
Plant response rating ([11]; 125 g ai/ha): 10
Plant response rating ([11]; 250 g ai/ha): 15
Plant response rating ([12]; 31 g ai/ha): 85
Plant response rating ([12]; 62 g ai/ha): 85
Plant response rating ([12]; 125 g ai/ha): 85
Plant response rating ([12]; 250 g ai/ha): 85
Plant response rating ([13]; 31 g ai/ha): 20
Plant response rating ([13]; 62 g ai/ha): 20
Plant response rating ([13]; 125 g ai/ha): 25
Plant response rating ([13]; 250 g ai/ha): 30

COc1cc(=O)n(-c2ccc(F)cc2)nc1Cc1ccnc(C(F)(F)F)c1 [Compound 17, 2-(4-fluorophenyl)-5-methoxy-6-[[2-(trifluoromethyl)-4-pyridinyl]methyl]-3 (2H)-pyridazinone]
Plant response rating: Waterhemp_RES2 ([1]; 16 g ai/ha): 60
Plant response rating: Waterhemp_RES2 ([1]; 31 g ai/ha): 80
Plant response rating: Waterhemp_RES2 ([1]; 62 g ai/ha): 80
Plant response rating: Waterhemp_RES2 ([1]; 125 g ai/ha): 90
Plant response rating: Waterhemp_RES2 ([1]; 250 g ai/ha): 95
